Converted amounts (≈) assume the structure as drawn. Read-outs that look alike come from different tables or passages of the source.
What was measured:
[1] = test system: E. cloacae 6054; assay: microbe, parasite or virus in culture; format: cell-based; details: E. cloacae 6054, 24-h incubation, mean of 3 replicates from 2 independent experiments
Method: (§1) Strains were obtained from American Type Culture Collection (ATCC, Manassas, VA) or the clinical isolate collection at Trideum Biosciences (Frederick, MD, USA). Bioluminescence strains of P. aeruginosa 19660, transfected with the Xen5 luciferase gene, and S. aureus ATCC® 49525™ (Wright), transfected with the Xen36 luciferase gene, were obtained from Perkin Elmer (Hopkinton, MA).
(§2) A single colony was aseptically picked from an agar overlay and released in 25–30 mL of pre-warmed trypticase soy broth in a culture flask. Each culture was incubated overnight in a 37°C incubator. […] Pathogen growth was measured by absorbance at 600 nm. Four replicas were included for each test agent concentration. […]

[2] = test system: E. cloacae 6053; assay: microbe, parasite or virus in culture; format: cell-based; details: E. cloacae 6053, 24-h incubation, mean of 3 replicates from 2 independent experiments
Method: as §1, §2

[3] = test system: P. aeruginosa ATCC 19660; assay: microbe, parasite or virus in culture; format: cell-based, Pseudomonas aeruginosa; details: P. aeruginosa ATCC 19660, 24-h incubation, mean of 3 replicates from 2 independent experiments
Method: as §1, §2

[4] = test system: P. aeruginosa 6186; assay: microbe, parasite or virus in culture; format: cell-based, Pseudomonas aeruginosa; details: P. aeruginosa 6186, 24-h incubation, mean of 3 replicates from 2 independent experiments
Method: as §1, §2

[5] = test system: P. aeruginosa ATCC 27853; assay: microbe, parasite or virus in culture; format: cell-based, Pseudomonas aeruginosa; details: P. aeruginosa ATCC 27853, 24-h incubation, mean of 3 replicates from 2 independent experiments
Method: as §1, §2

[6] = test system: S. epidermis ATCC 51625; assay: microbe, parasite or virus in culture; format: cell-based, S. epidermidis; details: S. epidermis ATCC 51625, 24-h incubation, mean of 3 replicates from 2 independent experiments
Method: as §1, §2

[7] = test system: A. baumannii 6838; assay: microbe, parasite or virus in culture; format: cell-based, Acinetobacter baumannii; details: A. baumannii 6838, 24-h incubation, mean of 3 replicates from 2 independent experiments
Method: as §1, §2

[8] = test system: A. baumannii 6043; assay: microbe, parasite or virus in culture; format: cell-based, Acinetobacter baumannii; details: A. baumannii 6043, 24-h incubation, mean of 3 replicates from 2 independent experiments
Method: as §1, §2

[9] = test system: K. pneumonia 6069; assay: microbe, parasite or virus in culture; format: cell-based, Klebsiella pneumoniae; details: K. pneumonia 6069, 24-h incubation, mean of 3 replicates from 2 independent experiments
Method: as §1, §2

[10] = test system: K. pneumonia 6066; assay: microbe, parasite or virus in culture; format: cell-based, Klebsiella pneumoniae; details: K. pneumonia 6066, 24-h incubation, mean of 3 replicates from 2 independent experiments
Method: as §1, §2

[11] = test system: K. pneumonia ATCC 10031; assay: microbe, parasite or virus in culture; format: cell-based, Klebsiella pneumoniae; details: K. pneumonia ATCC 10031, 24-h incubation, mean of 3 replicates from 2 independent experiments
Method: as §1, §2

[12] = test system: S. aureus B-767; assay: microbe, parasite or virus in culture; format: cell-based, Staphylococcus aureus; details: S. aureus B-767, 24-h incubation, mean of 3 replicates from 2 independent experiments
Method: as §1, §2

[13] = test system: MRSA 6381; assay: microbe, parasite or virus in culture; format: cell-based, Staphylococcus aureus; details: MRSA 6381, 24-h incubation, mean of 3 replicates from 2 independent experiments
Method: as §1, §2

[14] = test system: MRSA 6313; assay: microbe, parasite or virus in culture; format: cell-based, Staphylococcus aureus; details: MRSA 6313, 24-h incubation, mean of 3 replicates from 2 independent experiments
Method: as §1, §2

[15] = test system: S. aureus 6061; assay: microbe, parasite or virus in culture; format: cell-based, Staphylococcus aureus; details: S. aureus 6061, 24-h incubation, mean of 3 replicates from 2 independent experiments
Method: as §1, §2

[16] = test system: MRSA ATCC 33592; assay: microbe, parasite or virus in culture; format: cell-based, Staphylococcus aureus; details: MRSA ATCC 33592, 24-h incubation, mean of 3 replicates from 2 independent experiments
Method: as §1, §2

[17] = test system: bioluminescent S. aureus 49525; assay: Bioluminescence time-kill assay; format: cell-based, Staphylococcus aureus; details: antibiotics after 30 min incubation, triplicates, two independent experiments
Method: as §1
(§3) Non-invasive real-time evaluation of viability, mammalian, and bacterial cells, was performed using bioluminescent human keratinocytes (HaCaT, AddexBio, San Diego, CA) and murine L929 fibroblast cells (ATCC, Manassas, VA). The bioluminescent variants were constructed by transfection with a luciferase gene (RediFect Red-Fluc-Puromycin, Catalog #CL596002) (Hamblin et al., [2003]). […] Each concentration was performed in triplicate. Bioluminescence imaging was performed at pre-specified times (0, 15, and 30 min and 1, 3, 5, 8, and 24 h) and compared to concurrently run vehicle-controls. The 96-well plate was positioned on the stage (12.5-cm field of view) within the in vivo Imaging System (IVIS) imaging system (Caliper Life Sciences, Inc., Hopkinton, MA, USA), with an open emission filter, binning of 4, and f-stop 1, and a 1-min exposure time. The resultant photons emitted from the live cells were quantified using Living Image® software (version 4.3, Caliper Life Sciences, Inc.). […]

[18] = test system: bioluminescent P. aeruginosa 19660; assay: Bioluminescence time-kill assay; format: cell-based, Pseudomonas aeruginosa; details: antibiotics after 30 min incubation, triplicates, two independent experiments
Method: as §1, §3

[19] = test system: A. baumannii ATCC 17978; assay: microbe, parasite or virus in culture; format: cell-based, Acinetobacter baumannii; details: Acinetobacter baumannii, ATCC17978; A. baumannii ATCC 17978; 24-h incubation; mean of 3 replicates from 2 independent experiments; read-out: Minimum Inhibitory Concentration (MIC)
Method: as §1, §2

[20] = test system: S. aureus ATCC 29213; assay: microbe, parasite or virus in culture; details: for MIC: Staphylococcus aureus
Excerpt: (§4) The development of resistance was confirmed if the microorganism started growing at continuously higher concentrations. […] Evaluations were done in duplicate.

[21] = test system: P. aeruginosa ATCC 27853; assay: Antibiotic resistance profiling, 30 serial passages; format: cell-based, Pseudomonas aeruginosa; details: for MIC: Pseudomonas aeruginosa
Excerpt: as §4

[22] = Enterobacter cloacae, read-out: Minimum Inhibitory Concentration (MIC)
[23] = Acinetobacter baumannii, read-out: Minimum Inhibitory Concentration (MIC)
[24] = Klebsiella pneumoniae, read-out: Minimum Inhibitory Concentration (MIC)
[25] = Staphylococcus aureus, read-out: Minimum Inhibitory Concentration (MIC)

`CC[C@H](C)[C@H](NC(=O)[C@H](CCCCN)NC(=O)[C@H](CCC(=O)O)NC(=O)[C@H](CCCCN)NC(=O)[C@H](CO)NC(=O)[C@H](CCCCN)NC(=O)[C@H](CCCNC(=N)N)NC(=O)[C@H](Cc1ccccc1)NC(=O)[C@H](Cc1ccccc1)NC(=O)[C@H](CC(=O)O)NC(=O)CNC(=O)[C@H](CC(C)C)NC(=O)[C@@H](N)CC(C)C)C(=O)NCC(=O)N[C@@H](CCCCN)C(=O)N[C@@H](CCC(=O)O)C(=O)N[C@@H](Cc1ccccc1)C(=O)N[C@@H](CCCCN)C(=O)N[C@@H](CCCNC(=N)N)C(=O)N[C@H](C(=O)N[C@H](C(=O)N[C@@H](CCC(N)=O)C(=O)N[C@@H](CCCNC(=N)N)C(=O)N[C@H](C(=O)N[C@@H](CCCCN)C(=O)N[C@@H](CC(=O)O)C(=O)N[C@@H](Cc1ccccc1)C(=O)N[C@@H](CC(C)C)C(=O)N[C@@H](CCCNC(=N)N)C(=O)N[C@@H](CC(N)=O)C(=O)N[C@@H](CC(C)C)C(=O)N[C@H](C(=O)N1CCC[C@H]1C(=O)N[C@@H](CCCNC(=N)N)C(=O)N[C@H](C(=O)N[C@@H](CCC(=O)O)C(=O)N[C@@H](CO)C(=O)O)[C@@H](C)O)C(C)C)[C@@H](C)CC)C(C)C)[C@@H](C)CC` [LL-37] was tested, and the “Minimum Inhibitory Concentration (MIC)” value [1] was >28.5 [128] μM, the “Minimum Inhibitory Concentration (MIC)” value [2] was >28.5 [128] μM and the “Minimum Inhibitory Concentration (MIC)” value [3] was 28.5 [128] μM. The “Minimum Inhibitory Concentration (MIC)” value [4] was >28.5 [128] μM, the “Minimum Inhibitory Concentration (MIC)” value [5] was 28.5 [128] μM and the “Minimum Inhibitory Concentration (MIC)” value [6] was >28.5 [128] μM. The “Minimum Inhibitory Concentration (MIC)” value [7] was >28.5 [128] μM, the “Minimum Inhibitory Concentration (MIC)” value [8] was 14.2 [64] μM and the “Minimum Inhibitory Concentration (MIC)” value [9] was >28.5 [128] μM. The “Minimum Inhibitory Concentration (MIC)” value [10] was >28.5 [128] μM, the “Minimum Inhibitory Concentration (MIC)” value [11] was >28.5 [128] μM and the “Minimum Inhibitory Concentration (MIC)” value [12] was >28.5 [128] μM. The “Minimum Inhibitory Concentration (MIC)” value [13] was >28.5 [128] μM, the “Minimum Inhibitory Concentration (MIC)” value [14] was >28.5 [128] μM and the “Minimum Inhibitory Concentration (MIC)” value [15] was >28.5 [128] μM. The “Minimum Inhibitory Concentration (MIC)” value [16] was >28.5 [128] μM.
`NC[C@H]1O[C@H](O[C@H]2[C@H](O)[C@@H](O[C@H]3O[C@H](CO)[C@@H](O)[C@H](N)[C@H]3O)[C@H](N)C[C@@H]2N)[C@H](N)C[C@@H]1O` [Tobramycin, tobramycin] was tested, and the MIC [1, 22] was 137 µM (≈ 64.1 µg/mL), the MIC [2, 22] was 68.5 µM (≈ 32 µg/mL) and the MIC ([3]; Pseudomonas aeruginosa, ATCC19660, read-out: Minimum Inhibitory Concentration (MIC)) was > 274 µM. For the same compound, the MIC ([4]; Pseudomonas aeruginosa, read-out: Minimum Inhibitory Concentration (MIC)) was > 274 µM, the MIC ([5]; Pseudomonas aeruginosa, ATCC27853, read-out: Minimum Inhibitory Concentration (MIC)) was 4.3 µM (≈ 2.01 µg/mL) and the “Bactericidal activity in time-kill assay” value [17] was “no trace of antibacterial activity”. The MIC ([6]; Staphylococcus epidermidis, ATCC51625, read-out: Minimum Inhibitory Concentration (MIC)) was 4.3 µM (≈ 2.01 µg/mL), the “Bactericidal activity in time-kill assay” value [18] was “no trace of antibacterial activity” and the MIC [7, 23] was 4.3 µM (≈ 2.01 µg/mL). The MIC [19] was 4.3 µM (≈ 2.01 µg/mL), the MIC [8, 23] was 68.5 µM (≈ 32 µg/mL) and the MIC [9, 24] was 4.3 µM (≈ 2.01 µg/mL). The MIC [10, 24] was 8.6 µM (≈ 4.02 µg/mL), the MIC ([11]; Klebsiella pneumoniae, ATCC10031, read-out: Minimum Inhibitory Concentration (MIC)) was 4.3 µM (≈ 2.01 µg/mL) and the MIC ([12]; Staphylococcus aureus, B767, read-out: Minimum Inhibitory Concentration (MIC)) was > 274 µM. For the same compound, the MIC [13, 25] was 274 µM (≈ 128 µg/mL), the MIC [14, 25] was > 274 µM and the MIC [15, 25] was 8.6 µM (≈ 4.02 µg/mL). For the same compound, the MIC [16, 25] was 137 µM (≈ 64.1 µg/mL).
In the case of `CCC[C@@H]1C[C@@H](C(=O)N[C@@H]([C@H]2O[C@H](SC)[C@H](O)[C@@H](O)[C@H]2O)[C@H](C)Cl)N(C)C1` [clindamycin], the “Fold increase in MIC value, Passage #30 vs #0” value ([20]; S. aureus ATCC 29213) is reported as 256 fold, the MIC ([20]; ATCC29213, read-out: MIC on Passage #0 and Passage #1) is reported as 0.125 µg/mL (≈ 0.294 µM) and the MIC ([20]; ATCC29213, read-out: MIC on Passage #30) is reported as 32 µg/mL (≈ 75.3 µM).
In the case of `CNC(C)C1CCC(N)C(OC2C(N)CC(N)C(OC3OCC(C)(O)C(NC)C3O)C2O)O1` (centres unmarked) [gentamicin], the “Fold increase in MIC value, Passage #30 vs #0” value ([21]; P. aeruginosa ATCC 27853) is reported as 4,096 fold, the MIC ([21]; ATCC27853, read-out: MIC during Passage #0 and Passage #1) is reported as 0.125 µg/mL (≈ 0.262 µM) and the MIC ([21]; ATCC27853, read-out: MIC during Passage #30) is reported as 512 µg/mL (≈ 1070 µM).

From article PMC6667648 (Frontiers in Microbiology, 2019)
